Consider 18 molecules from patent publication US12421240B2, “Hydropyrazino[1,2-d][1,4]diazepine compounds for the treatment of autoimmune disease” (Hoffmann-La Roche Inc., priority 2019, dated 2025).

The experiment deals with T1, human TLR9 (Homo sapiens, UniProt Q9NR96).
T1 sequence (Q9NR96 26-1032): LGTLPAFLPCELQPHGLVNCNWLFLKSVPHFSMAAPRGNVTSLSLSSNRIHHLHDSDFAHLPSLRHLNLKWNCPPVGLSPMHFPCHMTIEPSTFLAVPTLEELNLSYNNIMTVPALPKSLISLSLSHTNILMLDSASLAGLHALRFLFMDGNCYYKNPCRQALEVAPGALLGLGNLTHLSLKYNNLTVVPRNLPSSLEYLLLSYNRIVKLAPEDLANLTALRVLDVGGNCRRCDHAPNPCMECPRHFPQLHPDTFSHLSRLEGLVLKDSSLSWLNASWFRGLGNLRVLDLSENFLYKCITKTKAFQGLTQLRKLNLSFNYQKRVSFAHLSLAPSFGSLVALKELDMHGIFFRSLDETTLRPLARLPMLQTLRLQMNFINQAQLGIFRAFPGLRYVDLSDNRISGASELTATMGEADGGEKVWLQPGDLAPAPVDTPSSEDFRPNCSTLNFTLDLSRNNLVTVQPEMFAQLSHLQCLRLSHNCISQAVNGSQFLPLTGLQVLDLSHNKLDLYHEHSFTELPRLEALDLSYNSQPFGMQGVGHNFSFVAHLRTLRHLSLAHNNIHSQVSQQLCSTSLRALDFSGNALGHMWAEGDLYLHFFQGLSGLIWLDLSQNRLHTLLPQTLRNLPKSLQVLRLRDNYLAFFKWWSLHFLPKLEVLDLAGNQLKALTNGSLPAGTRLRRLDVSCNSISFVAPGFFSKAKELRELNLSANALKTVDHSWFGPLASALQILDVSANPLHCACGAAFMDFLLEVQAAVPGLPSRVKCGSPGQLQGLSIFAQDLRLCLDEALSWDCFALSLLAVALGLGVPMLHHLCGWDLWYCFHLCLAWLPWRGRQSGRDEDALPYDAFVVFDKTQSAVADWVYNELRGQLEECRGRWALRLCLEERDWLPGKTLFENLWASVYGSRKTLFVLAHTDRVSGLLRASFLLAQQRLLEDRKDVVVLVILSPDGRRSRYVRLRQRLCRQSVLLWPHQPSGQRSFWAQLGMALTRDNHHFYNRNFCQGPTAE
As to the kind of experiment: HEK293-Blue-hTLR-9 cells assay (SEAP reporter, ODN2006 stimulation). The class given is cell-based. As to conditions: HEK293-Blue-hTLR9 cells, ODN2006 ligand, 20 hrs; read-out: HEK/hTLR9 IC50. The procedure:
The following tests were carried out in order to determine the activity of the compounds of formula (I), (Ia) or (Ib) in HEK293-Blue-hTLR-7/8/9 cells assay.
HEK293-Blue-hTLR-9 Cells Assay:
A stable HEK293-Blue-hTLR-9 cell line was purchased from InvivoGen (Cat. #: hkb-htlr9, San Diego, California, USA). These cells were originally designed for studying the stimulation of human TLR9 by monitoring the activation of NF-κB. A SEAP (secreted embryonic alkaline phosphatase) reporter gene was placed under the control of the IFN-β minimal promoter fused to five NF-κB and AP-1-binding sites. The SEAP was induced by activating NF-κB and AP-1 via stimulating HEK-Blue hTLR9 cells with TLR9 ligands. Therefore the reporter expression was declined by TLR9 antagonist under the stimulation of a ligand, such as ODN2006 (Cat. #: tlrl-2006-1, Invivogen, San Diego, California, USA), for incubation of 20 hrs. The cell culture supernatant SEAP reporter activity was determined using QUANTI-Blue™ kit (Cat. #: rep-qb1, Invivogen, San Diego, California, USA) at a wavelength of 640 nm, a detection medium that turns purple or blue in the presence of alkaline phosphatase.
HEK293-Blue-hTLR9 cells were incubated at a density of 250,000˜450,000 cells/mL in a volume of 170 μL in a 96-well plate in Dulbecco's Modified Eagle's medium (DMEM) containing 4.5 g/L glucose, 50 U/mL penicillin, […], 2 mM L-glutamine, 10% (v/v) heat-inactivated fetal bovine serum with addition of 20 μL test compound in a serial dilution in the presence of final DMSO at 1% and 10 μL of 20 uM ODN2006 in above DMEM, perform incubation under 37° C. in a CO2 incubator for 20 hrs. Then 20 μL of the supernatant from each well was incubated with 180 μL Quanti-blue substrate solution at 37° C. for 2 h and the absorbance was read at 620-655 nm using a spectrophotometer. The signaling pathway that TLR9 activation leads to downstream NF-κB activation has been widely accepted, and therefore similar reporter assay was modified for evaluating TLR9 antagonist.
As to `C[C@@H]1CN(c2ccc(C#N)c3ncccc23)C[C@@H]2CCN(c3ccc4c(n3)CNCC4)CCN21` [Example 5, 5-[(4R,10aS)-4-methyl-8-(5,6,7,8-tetrahydro-1,7-naphthyridin-2-yl)-1,3,4,6,7,9,10,10a-octahydropyrazino[1,2-d][1,4]diazepin-2-yl]quinoline-8-carbonitrile], the IC50 came out at 72.1 nM. To `C[C@@H]1CN(c2ccc(C#N)c3ncccc23)C[C@@H]2CCN(Cc3ccc(N4CCNCC4)cn3)CCN21` [Example 19, 5-[(4R,10aS)-4-methyl-8-[(5-piperazin-1-yl-2-pyridyl)methyl]-1,3,4,6,7,9,10,10a-octahydropyrazino[1,2-d][1,4]diazepin-2-yl]quinoline-8-carbonitrile] belongs 45.8 nM; to `C[C@@H]1CN(c2ccc(C#N)c3ncccc23)C[C@@H]2CCN(c3cncc4c3CCNC4)CCN21` [Example 4, 5-[(4R,10aS)-4-methyl-8-(5,6,7,8-tetrahydro-2,7-naphthyridin-4-yl)-1,3,4,6,7,9,10,10a-octahydropyrazino[1,2-d][1,4]diazepin-2-yl]quinoline-8-carbonitrile], less than 31.8 nM; to `C[C@@H]1CN(c2ccc(C#N)c3ncccc23)C[C@@H]2CCN(Cc3ccc4c(c3)CNCC4)CCN21` [Example 12, 5-[(4R,10aS)-4-methyl-8-(1,2,3,4-tetrahydroisoquinolin-7-ylmethyl)-1,3,4,6,7,9,10,10a-octahydropyrazino[1,2-d][1,4]diazepin-2-yl]quinoline-8-carbonitrile], 43.8 nM.

As to `C[C@@H]1CN(c2ccc(C#N)c3ncccc23)C[C@@H]2CCN(c3ccc4c(n3)CCNC4)CCN21` [Example 6, 5-[(4R,10aS)-4-methyl-8-(5,6,7,8-tetrahydro-1,6-naphthyridin-2-yl)-1,3,4,6,7,9,10,10a-octahydropyrazino[1,2-d][1,4]diazepin-2-yl]quinoline-8-carbonitrile], the IC50 was 101 nM.

On to `C[C@@H]1CN(c2ccc(C#N)c3ncccc23)C[C@@H]2CCN(Cc3cncc(N4CCNCC4)c3)CCN21` [Example 16, 5-[(4R,10aS)-4-methyl-8-[(5-piperazin-1-yl-3-pyridyl)methyl]-1,3,4,6,7,9,10,10a-octahydropyrazino[1,2-d][1,4]diazepin-2-yl]quinoline-8-carbonitrile], for which the IC50 was 35.4 nM.

In the case of `C[C@@H]1CN(c2ccc(C#N)c3ncccc23)C[C@@H]2CCN(c3ccc([C@H]4CNCCO4)cc3)CCN21` [Example 3, 5-[(4R,10aS)-4-methyl-8-[4-[(2S)-morpholin-2-yl]phenyl]-1,3,4,6,7,9,10,10a-octahydropyrazino[1,2-d][1,4]diazepin-2-yl]quinoline-8-carbonitrile], the IC50 is 52 nM. To `C[C@@H]1CN(c2ccc(C#N)c3ncccc23)C[C@@H]2CCN(Cc3cnc4c(c3)CNCC4)CCN21` [Example 10, 5-[(4R,10aS)-4-methyl-8-(5,6,7,8-tetrahydro-1,6-naphthyridin-3-ylmethyl)-1,3,4,6,7,9,10,10a-octahydropyrazino[1,2-d][1,4]diazepin-2-yl]quinoline-8-carbonitrile] belongs less than 31.8 nM.

On to `CO[C@@H]1CN(c2cnc(CN3CC[C@H]4CN(c5ccc(C#N)n6ncc(F)c56)C[C@@H](C)N4CC3)c(F)c2)C[C@H]1N` [Example 27, 4-[(4R,10aS)-8-[[5-[(3R,4R)-3-amino-4-methoxy-pyrrolidin-1-yl]-3-fluoro-2-pyridyl]methyl]-4-methyl-1,3,4,6,7,9,10,10a-octahydropyrazino[1,2-d][1,4]diazepin-2-yl]-3-fluoro-pyrazolo[1,5-a]pyridine-7-carbonitrile], for which the IC50 was 65.4 nM. The result for `C[C@@H]1CN(c2ccc(C#N)c3ncccc23)C[C@@H]2CCN(Cc3ccc(N4C[C@@H](N)[C@@H](F)C4)cn3)CCN21` [Example 20, 5-[(4R,10aS)-8-[[5-[(3R,4S)-3-amino-4-fluoro-pyrrolidin-1-yl]-2-pyridyl]methyl]-4-methyl-1,3,4,6,7,9,10,10a-octahydropyrazino[1,2-d][1,4]diazepin-2-yl]quinoline-8-carbonitrile] reads 34.9 nM. The result for `CO[C@@H]1CN(c2ccc(CN3CC[C@H]4CN(c5ccc(C#N)c6ncccc56)C[C@@H](C)N4CC3)nc2)C[C@H]1N` [Example 22, 5-[(4R,10aS)-8-[[5-[(3R,4R)-3-amino-4-methoxy-pyrrolidin-1-yl]-2-pyridyl]methyl]-4-methyl-1,3,4,6,7,9,10,10a-octahydropyrazino[1,2-d][1,4]diazepin-2-yl]quinoline-8-carbonitrile] reads 62.8 nM; that for `C[C@@H]1CN(c2ccc(C#N)c3ncccc23)C[C@@H]2CCN(Cc3ncc(N4CCNCC4)cn3)CCN21` [Example 13, 5-[(4R,10aS)-4-methyl-8-[(5-piperazin-1-ylpyrimidin-2-yl)methyl]-1,3,4,6,7,9,10,10a-octahydropyrazino[1,2-d][1,4]diazepin-2-yl]quinoline-8-carbonitrile], 96.4 nM.

Take `C[C@@H]1CN(c2ccc(C#N)c3ncccc23)C[C@@H]2CCN(Cc3cc4c(cn3)CCNC4)CCN21` [Example 9, 5-[(4R,10aS)-4-methyl-8-(5,6,7,8-tetrahydro-2,6-naphthyridin-3-ylmethyl)-1,3,4,6,7,9,10,10a-octahydropyrazino[1,2-d][1,4]diazepin-2-yl]quinoline-8-carbonitrile]: the IC50 was 35 nM. To `C[C@@H]1CN(c2ccc(C#N)c3ncccc23)C[C@@H]2CCN(c3cnc(N4CCNCC4)nc3)CCN21` [Example 2, 5-[(4R,10aS)-4-methyl-8-(2-piperazin-1-ylpyrimidin-5-yl)-1,3,4,6,7,9,10,10a-octahydropyrazino[1,2-d][1,4]diazepin-2-yl]quinoline-8-carbonitrile] belongs 59.3 nM; to `C[C@@H]1CN(c2ccc(C#N)c3ncccc23)C[C@@H]2CCN(c3cc4c(cn3)CNCC4)CCN21` [Example 7, 5-[(4R,10aS)-4-methyl-8-(5,6,7,8-tetrahydro-2,7-naphthyridin-3-yl)-1,3,4,6,7,9,10,10a-octahydropyrazino[1,2-d][1,4]diazepin-2-yl]quinoline-8-carbonitrile], 81.9 nM; to `C[C@@H]1CN(c2ccc(C#N)c3ncccc23)C[C@@H]2CCN(c3ccc(N4CCNCC4)nc3)CCN21` [Example 1, 5-[(4R,10aS)-4-methyl-8-(6-piperazin-1-yl-3-pyridyl)-1,3,4,6,7,9,10,10a-octahydropyrazino [1,2-d][1,4]diazepin-2-yl]quinoline-8-carbonitrile], 207 nM.

As to `C[C@@H]1CN(c2ccc(C#N)c3ncccc23)C[C@@H]2CCN(Cc3cccc(N4CCNCC4)n3)CCN21` [Example 18, 5-[(4R,10aS)-4-methyl-8-[(6-piperazin-1-yl-2-pyridyl)methyl]-1,3,4,6,7,9,10,10a-octahydropyrazino[1,2-d][1,4]diazepin-2-yl]quinoline-8-carbonitrile], the IC50 is less than 31.8 nM. To `C[C@@H]1CN(c2ccc(C#N)c3ncccc23)C[C@@H]2CCN(Cc3cc4c(cn3)CNCC4)CCN21` [Example 8, 5-[(4R,10aS)-4-methyl-8-(5,6,7,8-tetrahydro-2,7-naphthyridin-3-ylmethyl)-1,3,4,6,7,9,10,10a-octahydropyrazino[1,2-d][1,4]diazepin-2-yl]quinoline-8-carbonitrile] belongs 62.2 nM.
